Experimental data reported in patent US10053455B2, “Diazaspiroalkaneone-substituted oxazole derivatives as spleen tyrosine kinase inhibitors” (AB SCIENCE, priority 2014, dated 2018).
Read-outs that look alike come from different tables or passages of the source.

Legend:
SYK kinase = SYK kinase (Homo sapiens (Human), UniProt P43405); assay: In vitro SYK inhibition assay (HTRF kinase assay); assay type: biochemical
Experimental: SYK kinase was purified as a full length protein in a baculovirus system near homogeneity. All kinase assays were performed with the Kinase TK (tyrosine kinase) HTRF (Homogeneous Time Resolved Fluorescence) assay developed by Cisbio international. […] Reactions were initiated upon introduction of the enzyme and terminated with the addition of one reaction volume (25 μl) of HTRF detection buffer. Plates were incubated for one hour at room temperature and the time resolved Fluorescence resonance energy transfer signal was measured in a Pherastar FS microplate reader (BMG Labtech).
(§1) Most of the kinases tested in this study were cloned, expressed and purified in the facilities of the inventors. They were expressed either as N-terminus hexahistidine-, hexahistidine-asparagine- or GST-tagged enzymes in a baculovirus or in a Colibacille expression system. Remaining enzymes (JAKs) were purchased from Millipore or Proqinase. For each enzyme, steady state kinetic parameters were determined and validated with known inhibitors.
(§2) The analysis of the effect of compounds on kinase activity was assessed with the HTRF® KinEASE assay (Cisbio International), an immuno-assay based on the quantification of the level of phosphorylation of a biotinylated peptide substrate using anti-phospho-specific antibody labeled with Europium (Eu^3+) cryptate. This assay comprises two steps: —an enzymatic step, during which the peptide substrate, the kinase, ATP, Mg^2+ and/or Mn^2+ are incubated with varying concentration of drug (from 0 to 10 μM); —a detection step, at the end of the reaction (stopped by addition of EDTA which chelates Mg^2+), the antibody anti-phospho peptide-Eu^3+ (emission 620 nm) and streptavidin XL-665 (emission 665 nm) are added to the reaction mix. After incubation, the obtained signal is proportional to the concentration of phosphorylated peptide in the sample. All measurements were performed on a BMG Labtech Pherastar FS apparatus. Results are expressed in delta fluorescence (DF) unit defined as follow DF %=[(ratio−ratio blank)/(ratio blank)]*100, where ratio=(665 nm/620 nm)*10^4. Each experiment was performed in duplicate and repeated two or three times.

Jak1 = Jak1 (Homo sapiens (Human), UniProt P23458); assay: HTRF kinase assay, Jak1; assay type: biochemical; conditions: enzymatic determination
Jak1, sequence (P23458 whole entry): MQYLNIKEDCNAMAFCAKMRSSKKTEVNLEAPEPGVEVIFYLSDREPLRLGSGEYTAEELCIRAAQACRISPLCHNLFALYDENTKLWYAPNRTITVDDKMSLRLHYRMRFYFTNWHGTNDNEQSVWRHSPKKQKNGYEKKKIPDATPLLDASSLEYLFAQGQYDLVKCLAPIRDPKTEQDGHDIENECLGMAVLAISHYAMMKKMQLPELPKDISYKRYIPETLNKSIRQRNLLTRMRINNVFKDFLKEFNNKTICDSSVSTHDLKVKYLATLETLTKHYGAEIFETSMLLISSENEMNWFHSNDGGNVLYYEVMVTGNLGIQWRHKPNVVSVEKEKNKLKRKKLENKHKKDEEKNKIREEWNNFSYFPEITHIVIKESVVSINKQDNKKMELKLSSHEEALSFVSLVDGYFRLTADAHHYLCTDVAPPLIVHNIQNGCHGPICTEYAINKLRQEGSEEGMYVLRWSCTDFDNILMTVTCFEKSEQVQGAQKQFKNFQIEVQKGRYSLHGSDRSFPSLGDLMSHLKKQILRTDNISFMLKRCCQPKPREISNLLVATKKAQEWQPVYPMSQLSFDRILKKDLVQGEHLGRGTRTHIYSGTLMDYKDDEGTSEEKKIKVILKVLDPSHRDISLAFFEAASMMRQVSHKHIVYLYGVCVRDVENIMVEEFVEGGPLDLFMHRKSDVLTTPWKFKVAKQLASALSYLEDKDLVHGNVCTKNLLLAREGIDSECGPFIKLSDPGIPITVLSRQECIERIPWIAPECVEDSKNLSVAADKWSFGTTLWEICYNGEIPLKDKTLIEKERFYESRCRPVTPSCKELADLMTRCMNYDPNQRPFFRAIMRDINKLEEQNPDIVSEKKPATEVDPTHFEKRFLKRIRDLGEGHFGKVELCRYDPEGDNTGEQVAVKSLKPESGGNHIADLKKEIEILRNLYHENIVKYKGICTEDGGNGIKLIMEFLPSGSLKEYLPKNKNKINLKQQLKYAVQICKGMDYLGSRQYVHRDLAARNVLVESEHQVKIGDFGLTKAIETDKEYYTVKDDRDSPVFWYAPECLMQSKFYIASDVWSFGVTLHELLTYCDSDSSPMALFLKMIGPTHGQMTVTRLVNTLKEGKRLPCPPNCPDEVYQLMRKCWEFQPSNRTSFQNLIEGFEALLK
Experimental: as §1
as §2, with “After incubation, the obtained signal is proportional to the concentration of phosphorylated peptide in the sample. All measurements were performed on a BMG Labtech Pherastar FS apparatus.” left out, “Each experiment was performed in duplicate and repeated two or three times.” left out

Flt3 = Flt3 (Homo sapiens (Human), UniProt P36888); assay: Cell-based proliferation assay on BaF3 model, Flt3
Flt3, sequence (P36888 27-993, species assumed): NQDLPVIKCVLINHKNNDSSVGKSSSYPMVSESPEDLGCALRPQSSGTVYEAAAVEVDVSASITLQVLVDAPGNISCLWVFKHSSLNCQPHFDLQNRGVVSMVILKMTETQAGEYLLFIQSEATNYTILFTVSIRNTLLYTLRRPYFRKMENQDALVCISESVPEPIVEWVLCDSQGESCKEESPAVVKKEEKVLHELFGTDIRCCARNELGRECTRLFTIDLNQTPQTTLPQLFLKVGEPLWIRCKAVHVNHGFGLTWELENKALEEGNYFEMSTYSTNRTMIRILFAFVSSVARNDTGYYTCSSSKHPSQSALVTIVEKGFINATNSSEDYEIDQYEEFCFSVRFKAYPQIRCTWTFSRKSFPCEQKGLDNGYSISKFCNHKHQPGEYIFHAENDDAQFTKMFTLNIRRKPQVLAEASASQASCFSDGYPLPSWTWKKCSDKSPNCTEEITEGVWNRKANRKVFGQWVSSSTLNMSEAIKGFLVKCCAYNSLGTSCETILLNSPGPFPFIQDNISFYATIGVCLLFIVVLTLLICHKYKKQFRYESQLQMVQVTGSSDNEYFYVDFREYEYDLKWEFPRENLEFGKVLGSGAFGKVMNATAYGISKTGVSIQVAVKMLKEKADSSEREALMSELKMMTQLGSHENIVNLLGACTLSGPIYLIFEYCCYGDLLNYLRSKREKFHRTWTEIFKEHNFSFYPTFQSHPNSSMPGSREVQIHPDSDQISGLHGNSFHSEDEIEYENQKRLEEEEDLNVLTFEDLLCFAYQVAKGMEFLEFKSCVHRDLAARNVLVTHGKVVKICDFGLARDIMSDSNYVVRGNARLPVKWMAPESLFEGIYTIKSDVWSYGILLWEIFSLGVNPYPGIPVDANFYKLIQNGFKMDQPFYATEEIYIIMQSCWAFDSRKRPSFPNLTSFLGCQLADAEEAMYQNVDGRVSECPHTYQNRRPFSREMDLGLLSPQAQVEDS
Experimental: (§3) Cell-based proliferation and viability assay CellTiter-Bleue cell-based survival/proliferation assay (Promega G8080) was performed on BaF3 models.
(§4) A total of 1.10^4 cells/well/50 μl were seeded in a 96-wells plate. Treatment was initiated by addition of a 2× drug solution of ½ serial dilutions ranging from 0 to 10 μM. Cells were grown for 48-72 h at 37° C. and then incubated with 10 μl/well of Promega CellTiter-Bleue reagent for 4 h at 37° C. The amount of formazan dye formed was quantified by its absorbance at 450 nm using a scanning multiwell spectrophotometer (POLARstar Omega, BMG labtech, France). A blank well without cells was used as a background control for the spectrophotometer and all assays were performed in duplicates and the experiments were repeated at least twice.

hERG = hERG (Homo sapiens (Human), UniProt Q12809); assay: Predictor hERG Fluorescence Polarization binding assay; conditions: 100% = E-4031
hERG, sequence (Q12809 whole entry): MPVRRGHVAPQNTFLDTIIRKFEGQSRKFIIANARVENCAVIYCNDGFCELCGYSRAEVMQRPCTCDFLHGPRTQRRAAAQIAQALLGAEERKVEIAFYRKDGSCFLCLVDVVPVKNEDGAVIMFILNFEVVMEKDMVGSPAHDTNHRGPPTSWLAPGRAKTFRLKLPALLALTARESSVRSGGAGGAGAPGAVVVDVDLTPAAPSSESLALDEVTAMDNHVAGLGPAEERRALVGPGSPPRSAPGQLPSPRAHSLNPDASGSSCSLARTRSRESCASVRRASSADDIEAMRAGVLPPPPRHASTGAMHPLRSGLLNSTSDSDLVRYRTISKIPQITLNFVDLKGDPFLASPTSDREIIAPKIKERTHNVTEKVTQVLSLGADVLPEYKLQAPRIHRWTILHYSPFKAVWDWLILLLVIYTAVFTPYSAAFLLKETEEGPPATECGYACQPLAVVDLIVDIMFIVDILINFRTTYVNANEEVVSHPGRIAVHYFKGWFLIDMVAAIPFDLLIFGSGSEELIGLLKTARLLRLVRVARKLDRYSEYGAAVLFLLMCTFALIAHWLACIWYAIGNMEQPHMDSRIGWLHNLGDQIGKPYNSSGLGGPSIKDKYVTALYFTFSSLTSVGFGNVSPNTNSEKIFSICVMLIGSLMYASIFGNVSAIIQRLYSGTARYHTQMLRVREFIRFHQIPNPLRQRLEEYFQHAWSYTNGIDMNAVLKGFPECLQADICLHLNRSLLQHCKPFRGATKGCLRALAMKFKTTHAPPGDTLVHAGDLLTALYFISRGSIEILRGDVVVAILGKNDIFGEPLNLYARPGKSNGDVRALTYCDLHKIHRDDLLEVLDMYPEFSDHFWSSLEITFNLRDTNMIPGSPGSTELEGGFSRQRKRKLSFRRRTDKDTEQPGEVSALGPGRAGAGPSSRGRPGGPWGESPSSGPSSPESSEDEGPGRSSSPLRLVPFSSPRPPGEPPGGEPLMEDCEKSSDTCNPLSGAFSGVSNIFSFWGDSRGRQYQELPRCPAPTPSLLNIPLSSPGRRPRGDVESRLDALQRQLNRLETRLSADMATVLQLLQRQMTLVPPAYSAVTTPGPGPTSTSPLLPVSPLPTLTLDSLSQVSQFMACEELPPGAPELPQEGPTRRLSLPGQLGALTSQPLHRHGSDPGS
Experimental: The activity of the test compounds on the hERG potassium channel was evaluated using a binding assay provided by Invitrogen (Predictor hERG Fluorescence Polarization assay Kit PV5365). The test was performed at a single concentration of 3 μM of drug. […] The data are expressed as a percentage of hERG inhibition, 100% corresponding to the inhibition obtained with E-4031 and 0% with the solvent DMSO (negative control).

[1] = tested on: Murine bone marrow mast cells (BMMCs); assay: IgE-mediated mast cell degranulation assay (β-hexosaminidase release); assay type: cell-based, C57BL/6J mice; conditions: Mus musculus, BMMC
Experimental: In vitro mast cell degranulation assay monitored by released of β-hexosaminidase. Murine bone marrow mast cells (BMMCs) are obtained by flushing bone marrow cells from the femurs of C57BL/6J mice, then cultured for 3-4 weeks in RPMI containing mouse recombinant IL-3 (30 ng/ml). RBL-2H3 is a rat basophile cell line maintained in monolayer culture in EMEM supplemented with 20% FCS, 1 mM Glutamine and 1× antibiotics. Cells were sensitized overnight with 0.2 μg/ml anti-DNP-IgE (Sigma-Aldrich D8406). […] After incubation 90 min at 37° C., the reaction was quenched by addition of 100 μl of sodium carbonate buffer (0.1M Na2CO3/NaHCO3 pH 10.0). β-hexosaminidase activity was quantified by reading plate absorbance at 405 nm with reference at 620 nm using a PolarSTAR reader plate (BMG labech).
The activity of anti-SYK compounds was tested in an IgE-mediated mast cell degranulation assay. SYK has been identified to be critical for the initiation of mast cell mediator release following the aggregation of FcεRI.

Src = Src (Homo sapiens (Human), UniProt P12931); assay: HTRF kinase assay, Src; assay type: biochemical; conditions: enzymatic determination
Src, sequence (P12931 whole entry, looked up, species assumed): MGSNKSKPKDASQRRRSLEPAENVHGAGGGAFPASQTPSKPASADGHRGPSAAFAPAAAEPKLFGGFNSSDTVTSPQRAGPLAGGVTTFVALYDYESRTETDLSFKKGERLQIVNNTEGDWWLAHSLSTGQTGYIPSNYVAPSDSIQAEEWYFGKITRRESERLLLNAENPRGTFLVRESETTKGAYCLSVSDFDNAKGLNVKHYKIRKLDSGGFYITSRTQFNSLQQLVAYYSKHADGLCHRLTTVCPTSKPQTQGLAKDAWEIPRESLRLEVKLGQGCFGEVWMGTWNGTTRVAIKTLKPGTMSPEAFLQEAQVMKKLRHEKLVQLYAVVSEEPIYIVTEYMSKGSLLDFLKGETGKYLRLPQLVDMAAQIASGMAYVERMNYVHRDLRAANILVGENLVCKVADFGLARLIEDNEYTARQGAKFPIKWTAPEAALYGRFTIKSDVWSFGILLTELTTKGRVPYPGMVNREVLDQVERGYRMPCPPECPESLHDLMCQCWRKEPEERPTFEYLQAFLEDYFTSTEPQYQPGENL
Experimental: as §1
as §2, with “After incubation, the obtained signal is proportional to the concentration of phosphorylated peptide in the sample. All measurements were performed on a BMG Labtech Pherastar FS apparatus.” left out, “Each experiment was performed in duplicate and repeated two or three times.” left out

KIT wild-type = KIT wild-type (Homo sapiens (Human), UniProt P10721); assay: Cell-based proliferation assay on BaF3 model, KIT wild-type
KIT wild-type, sequence (P10721 26-976, species assumed): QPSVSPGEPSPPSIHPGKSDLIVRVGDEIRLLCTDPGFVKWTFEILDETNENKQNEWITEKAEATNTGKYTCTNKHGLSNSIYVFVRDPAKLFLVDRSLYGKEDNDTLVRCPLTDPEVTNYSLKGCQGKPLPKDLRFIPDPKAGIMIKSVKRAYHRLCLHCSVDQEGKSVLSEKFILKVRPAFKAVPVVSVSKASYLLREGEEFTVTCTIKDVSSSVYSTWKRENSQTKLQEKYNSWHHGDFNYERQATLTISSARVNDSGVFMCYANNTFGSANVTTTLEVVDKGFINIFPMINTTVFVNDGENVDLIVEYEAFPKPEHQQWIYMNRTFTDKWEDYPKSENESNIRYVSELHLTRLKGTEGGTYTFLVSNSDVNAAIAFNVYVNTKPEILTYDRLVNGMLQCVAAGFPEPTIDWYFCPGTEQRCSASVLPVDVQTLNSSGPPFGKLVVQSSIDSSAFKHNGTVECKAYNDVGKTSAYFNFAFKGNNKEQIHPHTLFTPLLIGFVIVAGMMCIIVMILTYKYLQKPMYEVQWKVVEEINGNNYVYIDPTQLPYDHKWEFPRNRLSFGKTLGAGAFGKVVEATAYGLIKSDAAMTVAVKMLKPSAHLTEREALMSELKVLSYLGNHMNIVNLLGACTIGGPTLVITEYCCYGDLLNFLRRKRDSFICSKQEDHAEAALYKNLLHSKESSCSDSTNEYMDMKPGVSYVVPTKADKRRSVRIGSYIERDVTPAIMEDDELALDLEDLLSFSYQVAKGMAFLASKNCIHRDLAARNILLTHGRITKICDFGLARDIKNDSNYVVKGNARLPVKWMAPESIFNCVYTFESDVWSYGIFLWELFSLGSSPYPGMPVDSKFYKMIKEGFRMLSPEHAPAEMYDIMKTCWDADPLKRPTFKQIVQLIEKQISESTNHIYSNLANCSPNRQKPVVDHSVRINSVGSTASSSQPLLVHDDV
Experimental: as §3, §4

Cc1ccnc(Nc2cccc(-c3cnc(N4CCNC(=O)C45CC5)o3)c2)n1 [Compound 001, 4-{5-[3-(4-Methyl-pyrimidin-2-ylamino)-phenyl]-oxazol-2-yl}-4,7-diaza-spiro[2.5]octan-8-one]
IC50 (SYK kinase; enzymatic determination, read-out: Kinase activity profile IC50 Syk): 41 nM | IC50 (SYK kinase; read-out: Syk (IC50)): < 500 nM | IC50 (Jak1): 3400 nM | IC50 (Flt3): 6000 nM | inhibition at 3 µM (hERG): 0% | activity at 0.01 µM ([1]; 0.01 μM, read-out: β-hexosaminidase activity (% control untreated cells)): 88 ± 14% | activity at 0.1 µM ([1]; 0.1 μM, read-out: β-hexosaminidase activity (% control untreated cells)): 32 ± 9% | activity at 1 µM ([1]; 1 μM, read-out: β-hexosaminidase activity (% control untreated cells)): 3 ± 5% | IC50 ([1]; read-out: inhibiting mast cell degranulation IC50): 50 nM | IC50 (Src): 2600 nM | IC50 (KIT wild-type): 10000 nM
